Target: T1, h-TRPA1 (Homo sapiens, UniProt O75762)
T1 construct: expressed in transfected cells; host or cells: CHO cells
Assay: activation of CHO cells expressing h-TRPA1, calcium imaging
Format: cell-based
Experimental: Several epicatechin metabolites were tested in vitro to determine if any of these compounds are an agonist of the cation channel of TRPA1. Specifically, the activation of CHO cells expressing h-TRPA1 was tested according to the calcium imaging method described in Riera et al. (Riera, C. E., Vogel, H., Simon, S. A., Damak, S., & le Coutre, J. Sensory attributes of complex tasting divalent salts are mediated by TRPM5 and TRPV1 channels. J. Neurosci. 29, 2654-2662 (2009)).

[1] = concentration (max) tested 100 mM
[2] = concentration (max) tested 3 mM

T1 sequence (O75762 whole entry): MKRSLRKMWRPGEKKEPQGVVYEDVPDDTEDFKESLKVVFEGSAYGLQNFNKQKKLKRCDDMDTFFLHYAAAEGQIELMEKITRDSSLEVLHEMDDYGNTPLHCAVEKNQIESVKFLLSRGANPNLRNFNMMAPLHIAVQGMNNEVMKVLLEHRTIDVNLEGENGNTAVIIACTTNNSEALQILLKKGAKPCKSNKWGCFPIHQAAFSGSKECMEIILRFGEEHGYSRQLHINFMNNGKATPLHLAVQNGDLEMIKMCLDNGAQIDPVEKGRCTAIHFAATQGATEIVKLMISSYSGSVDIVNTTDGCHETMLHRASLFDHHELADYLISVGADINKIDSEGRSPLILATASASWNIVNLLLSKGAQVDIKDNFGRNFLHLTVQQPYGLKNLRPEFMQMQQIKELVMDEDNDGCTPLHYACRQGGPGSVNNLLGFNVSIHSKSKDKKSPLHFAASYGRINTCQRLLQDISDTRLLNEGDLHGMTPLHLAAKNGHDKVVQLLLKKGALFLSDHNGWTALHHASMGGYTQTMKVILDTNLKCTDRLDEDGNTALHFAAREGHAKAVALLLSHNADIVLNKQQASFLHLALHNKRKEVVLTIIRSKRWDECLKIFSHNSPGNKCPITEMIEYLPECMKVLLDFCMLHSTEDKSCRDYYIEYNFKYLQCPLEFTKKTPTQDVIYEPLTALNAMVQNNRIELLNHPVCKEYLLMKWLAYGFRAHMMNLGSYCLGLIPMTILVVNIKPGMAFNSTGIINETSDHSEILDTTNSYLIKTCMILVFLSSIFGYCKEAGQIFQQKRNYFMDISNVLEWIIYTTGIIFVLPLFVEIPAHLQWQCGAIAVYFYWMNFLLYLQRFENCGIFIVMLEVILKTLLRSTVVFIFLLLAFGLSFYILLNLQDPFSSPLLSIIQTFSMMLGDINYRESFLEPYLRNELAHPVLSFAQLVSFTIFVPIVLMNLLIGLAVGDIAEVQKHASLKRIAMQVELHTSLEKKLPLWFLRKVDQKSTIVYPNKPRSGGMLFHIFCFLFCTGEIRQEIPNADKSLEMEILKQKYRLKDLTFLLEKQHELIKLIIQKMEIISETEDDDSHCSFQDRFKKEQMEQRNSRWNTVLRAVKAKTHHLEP

Activity vs hTRPA1 [1]	Molecule	Activity vs hTRPA1 [2]	further results
	COc1cc([C@H]2Oc3cc(O)cc(O)c3C[C@H]2O)ccc1OS(=O)(=O)O [3′-O-methyl-4′-O-sulfate-EC, 3′-O-methyl-4′-O-sulfate epicatechin]		Activity vs hTRPA1 (concentration (max) tested 1 mM): Active
Inactive	COc1cc([C@H]2Oc3cc(OS(=O)(=O)O)cc(O)c3C[C@H]2O)ccc1O [3′-O-methyl-7-O-sulfate-EC]		
Inactive	COc1cc([C@H]2Oc3cc(O)cc(O)c3C[C@H]2O)ccc1O [3′-O-methyl-EC]		
Inactive	O=S(=O)(O)Oc1cc([C@H]2Oc3cc(O)cc(O)c3C[C@H]2O)ccc1O [3′-O-sulfate-EC]		
Inactive	COc1ccc([C@H]2Oc3cc(O)cc(O)c3C[C@H]2O)cc1O [4′-O-methyl-EC]		
Inactive	O=S(=O)(O)Oc1ccc([C@H]2Oc3cc(O)cc(O)c3C[C@H]2O)cc1O [4′-O-sulfate-EC]		
	COc1ccc(C2CC(=O)c3c(O)cc(O)cc3O2)cc1O[C@@H]1O[C@H](C(=O)O)[C@@H](O)[C@H](O)[C@H]1O (stereo partly drawn) [Hesperetin-3-O-Glucuronide]	Inactive	
	Hesperetin-4-O-Glucuronide	Inactive	
	Hesperetin-7-3-O-Glucuronide	Inactive	

From patent US20210196671A1, “COMPOSITIONS COMPRISING 3'-O-METHYL-4'-O-SULFATE EPICATECHIN AND THERAPEUTIC USES OF SUCH COMPOSITIONS” (SOCIÉTÉ DES PRODUITS NESTLÉ S.A., priority 2016, published 2021)
